Data on one compound can be found in patent EP4714462A1, “COMPOSITION COMPRISING GV1001 FOR PREVENTING OR TREATING MACULAR DEGENERATION” (Gemvax & Kael Co., Ltd., priority 2023, dated 2024).

The test system of assay [1] is retinal pigment epithelial cell line ARPE-19. As to the kind of experiment: Reduction of reactive oxygen species (DCF-DA fluorescence microscopy) in H2O2-treated retinal pigment epithelial cells. Type of assay: cell-based. As to conditions: ARPE-19, H2O2 50 µM; metformin 1 mM (positive control). The text has this:
(§1) Reactive oxygen species were generated by treating retinal pigment epithelial cell line ARPE-19 with hydrogen peroxide (H2O2).

Assay [2] deals with mouse model of age-related macular degeneration. The experiment in a line: Short-term administration in NaIO3 mouse model of age-related macular degeneration (phalloidin-stained RPE/choroid flat mount). Type of assay: in vivo, C57BL/6 mice. The conditions noted are these: NaIO3 20 mg/kg IV; metformin 4 mg/mL in drinking water for 7 days before NaIO3. The text has this:
Mice injected with sodium iodate (NaIO3) are used as a representative model of age-related macular degeneration. A mouse model of age-related macular degeneration was established by injecting NaIO3 into C57BL/6 mice, thereby inducing oxidative stress specific to retinal pigment epithelial cells and causing damage.

The test system of assay [3] is retinal pigment epithelial cell line ARPE-19. As to the kind of experiment: Epithelial-mesenchymal transition (cadherin 1 / vimentin, confocal microscopy) in H2O2-treated retinal pigment epithelial cells. Type of assay: cell-based. As to conditions: ARPE-19, H2O2 50 µM; metformin 1 mM (positive control).
Text: as §1

For the compound `CN(C)C(=N)N=C(N)N` [metformin], the DCF-DA fluorescence intensity result in assay [1] was “decreased”. In addition, the tight junction structure result in assay [2] is “maintained”. Moreover, the epithelial-mesenchymal transition result in assay [3] is given as “reduced”.
